In patent US20260242340A1, “COMPOUNDS AND METHODS FOR TREATING PROTEIN AGGREGATION DISEASES” (ACELOT, INC., priority 2023, published 2026):

Assays:
[1] = molecular target: T1, TDP-43 cytosolic aggregates (TDP-43-tGFP-U2OS cell line) (Homo sapiens, UniProt Q13148); assay: TDP-43 cytoplasmic aggregation assay; type: cell-based; details: 10 μM compound; TDP-43-tGFP-U2OS cells, sodium arsenite; lower = more potent
T1 construct: expressed in transfected cells; host or cells: U2OS (recombinant, IPTG-inducible TDP-43 expression)
Experimental: Recombinant TDP-43-tGFP-U2OS cell line was thawed (2×10^6 cells per T75) and was maintained in DMEM-F12 supplemented with 10% FBS at 37° C. in a humidified 5% CO2 atmosphere. Cells were plated in 96-well plates with a density of 10,000 cells (+/−2000 cells) per well. Cells were incubated with the test compounds and isopropyl β-D-1-thiogalactopyranoside (IPTG) 1 mM to induce TDP43 expression for 24 hours. The assays were carried out in triplicate. Cells were treated with 125-250 μM of sodium arsenite for 120 min and TDP-43 punctae formation was quantified in both cell cytoplasm and cell nucleus, in living cells. The nuclei were stained using Hoechst (0.5 μg/ml) and the fluorescence was measured using a Cell Insight High-Content Bioimager from Thermo Fisher. To detect the Hoechst, the filters used were 380/10 and 460/10 nm for excitation and emission, respectively, and to detect the TDP-43 punctae, the filters were 488/20 and 520/20 nm, respectively. The images were obtained with an objective of 20×. Cell quantification was performed delimitating the region of interest of the nuclei and after quantification the average of each triplicate was performed. For granule quantification the spot detector application from Cell Software delimitated 2 regions of interest, the nuclei and cytosol. This software quantified the average number of granules per nuclei and the average number of granules per cytosol in each well.

[2] = molecular target: T2, alpha-synuclein (Homo sapiens, UniProt P37840); assay: Alpha-synuclein thioflavin T assay; type: biochemical; details: 250 μM compound on pre-formed aggregates of 50 μM alpha-synuclein, 24 hours; 100% = alpha synuclein + DMSO
T2 construct: purchased Proteos RP-003
Experimental: Recombinant alpha-synuclein monomeric protein was procured from Proteos (catalog no. RP-003, 10 mg/ml or 700 μM concentration). Prior to aggregation, the protein was centrifuged at 10,000 rpm for 5 minutes to remove any pre-existing aggregates. The stock solution was then diluted to 50 μM concentration in filtered 1×PBS and allowed to aggregate with continuous shaking at 1000 rpm on a thermomixer for 96 hours at 37° C. After 96 hours, the ThT fluorescence was checked for the sample to confirm aggregate formation using ThT, a well-known amyloid marker dye. The ThT active aggregates were then used for high-throughput small molecule inhibitor screening. For screening small molecule disaggregators, 10 mM DMSO stock solutions of small molecules were diluted to 250 μM in the reaction mix containing 20 μM ThT and aggregates formed by 50 μM alpha-synuclein. As a positive/vehicle control, 100% DMSO stock was diluted to 2.5% to match the DMSO in the small molecule conditions. ThT fluorescence assay was performed for 24 hours with 3 replicates per sample in a 384 well plate (Corning low volume black/clear flat bottom) on a microplate reader (Molecular Devices SpectraMax iD5 or BioTek Agilent Synergy Neo2) using excitation wavelength of 440 nm and emission wavelength of 490 nm. The temperature was maintained at 37° C. and the plate was continuously shaken throughout the measurement. All data were plotted and analyzed in GraphPad Prism.

[3] = molecular target: T3, Aβ 1-42 (Homo sapiens, UniProt P05067); assay: Aβ42 thioflavin T assay; type: biochemical; details: 50 μM compound, 5 μM Aβ 1-42, ThT RFU at 15 hours; 100% = Aβ + DMSO; read-out: Aβ42 % aggregation at 50 μM
T3 construct: The monomeric form of Aβ 1-42 (rPeptide, A1170-025) film; purchased rPeptide A1170-025
Experimental: The effect of compounds on fibril formation by Aβ 1-42 was screened using a thioflavin T (ThT) fluorescence assay in a 96-well plate format. The monomeric form of Aβ 1-42 (rPeptide, A1170-025) film was diluted with 10 mM NaOH to form a 1 mg/ml stock solution. This stock solution was then further diluted with cell culture grade water (Cytiva, SH30529.01) and 10×PBS (VWR, 97063-660) to a working concentration of 100 μM in 1×PBS on ice. Compounds were initially dissolved in 100% DMSO (MilliporeSigma, D2650) at room temperature to make a 10 mM stock and stored at −20° C. prior to the experiment. On the day of the experiment, the stock solution was diluted with 1×PBS to a concentration of 500 μM, containing 5% DMSO. The reaction mixture, containing 10 μM ThT […], 5 μM Aβ 1-42, and 1×PBS was prepared in 15 ml Falcon centrifuge tubes (Corning, 352070) and kept on ice during preparation. The reaction mixture was then dispensed into multiple wells of a 96-well half-area, low-binding polyethylene non-treated plate (Corning, 3880) with a clear bottom, at 90 μL per well. To each well, 10 μL of 500 μM compound stock was added, with three replicates per compound. To account for the presence of DMSO, 5% DMSO in 1×PBS was used as the vehicle control. The positive control consisted of 10 μM ThT, 5 μM Aβ 1-42, and 0.5% DMSO in 1×PBS, while the negative control consisted of 10 μM ThT and 0.5% DMSO in 1×PBS. The plates were sealed with polyester sealing tape (VWR, 89134-430) to prevent evaporation and then placed in a plate reader (Molecular Devices SpectraMax ID5) at 37° C. without agitation. ThT fluorescence was measured through the bottom of the plate using 440- and 480-nm excitation and emission filters for 15 hours at 0.5-hour intervals. Each well was scanned at 5 points with a 1.25 mm distance between points. The relative fluorescence unit (RFU) at 15 hours was used to rank the percent of aggregation for all tested compounds and controls.

T1 sequence (Q13148 whole entry): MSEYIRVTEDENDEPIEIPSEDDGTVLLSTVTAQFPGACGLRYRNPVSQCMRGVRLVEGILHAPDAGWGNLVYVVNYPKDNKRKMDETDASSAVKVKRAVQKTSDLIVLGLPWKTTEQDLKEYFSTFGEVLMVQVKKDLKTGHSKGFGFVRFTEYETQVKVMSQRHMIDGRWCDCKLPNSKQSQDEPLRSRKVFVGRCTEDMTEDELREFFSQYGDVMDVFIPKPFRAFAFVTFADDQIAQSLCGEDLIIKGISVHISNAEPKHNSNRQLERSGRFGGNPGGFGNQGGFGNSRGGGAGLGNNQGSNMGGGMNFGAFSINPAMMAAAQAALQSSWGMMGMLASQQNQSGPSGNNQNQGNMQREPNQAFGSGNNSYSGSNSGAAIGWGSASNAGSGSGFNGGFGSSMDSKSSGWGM
T3 sequence (P05067 672-713 limits assumed): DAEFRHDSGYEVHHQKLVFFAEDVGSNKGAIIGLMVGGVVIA

Row | SMILES | TDP-43 % cytosolic aggregates at 10 μM [1] | % alpha synuclein aggregation as measured on ThT [2] | activity at 50 µM [3]
1 | CC(=O)Nc1ccc2c(c1)CCN(CCc1cccc(Cl)c1)C2 [Compound 1] | 34.5% | 77.8% | 60.9%
2 | CC(=O)Nc1ccc2c(c1)CCN(CCc1ccc(F)c(Cl)c1)C2 [Compound 2] | 10.2% | 95.6% | 73.5%
